Data on 14 molecules can be found in patent US20180265515A1 (Genentech, Inc., priority 2015, published 2018).

Each structure is given as a SMILES string.

Assay [1] deals with T1, isolated recombinant JAK1 kinase domain (Homo sapiens, UniProt P23458).
T1 construct: The activity of the isolated recombinant JAK1 and JAK2 kinase domain was measured
In words: JAK1 enzyme assay (Caliper LabChip, Ki). The assay is classed as biochemical. The settings on record: recombinant JAK1 kinase domain, 25 μM ATP. The method, then:
(§1) JAK Enzyme Assays were Carried Out as Follows:
(§2) The activity of the isolated recombinant JAK1 and JAK2 kinase domain was measured by monitoring phosphorylation of a peptide derived from JAK3 (Val-Ala-Leu-Val-Asp-Gly-Tyr-Phe-Arg-Leu-Thr-Thr, fluorescently labeled on the N-terminus with 5-carboxyfluorescein) using the Caliper LabChip® technology (Caliper Life Sciences, Hopkinton, Mass.). […] Reactions were incubated at 22° C. in 384-well polypropylene microtiter plates for 30 minutes and then stopped by addition of 25 μL of an EDTA containing solution (100 mM HEPES buffer (pH 7.2), 0.015% Brij-35, 150 mM EDTA), resulting in a final EDTA concentration of 50 mM. After termination of the kinase reaction, the proportion of phosphorylated product was determined as a fraction of total peptide substrate using the Caliper LabChip® 3000 according to the manufacturer's specifications. Ki values were then determined using the Morrison tight binding model (Morrison, J. F., Biochim. Biophys. Acta. 185:269-296 (1969); William, J. W. and Morrison, J. F., Meth. Enzymol., 63:437-467 (1979)) modified for ATP-competitive inhibition [Ki=Ki,app/(1+[ATP]/Km,app)].

Assay [2] deals with T2, isolated recombinant JAK2 kinase domain (Homo sapiens, UniProt O60674).
T2 construct: The activity of the isolated recombinant JAK1 and JAK2 kinase domain was measured
T2 sequence (O60674 849-1124 limits assumed): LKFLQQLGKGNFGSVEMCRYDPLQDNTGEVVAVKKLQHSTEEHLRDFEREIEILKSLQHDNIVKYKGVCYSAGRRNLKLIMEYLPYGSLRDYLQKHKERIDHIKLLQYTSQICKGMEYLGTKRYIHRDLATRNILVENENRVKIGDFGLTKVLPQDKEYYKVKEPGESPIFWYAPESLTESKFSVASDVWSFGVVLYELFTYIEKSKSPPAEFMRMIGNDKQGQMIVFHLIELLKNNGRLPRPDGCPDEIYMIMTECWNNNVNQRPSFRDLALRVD
In words: JAK2 enzyme assay (Caliper LabChip, Ki). The class given is biochemical. As to conditions: 25 μM ATP. The procedure: as §1, §2

Assay [3] relates to JAK1-dependent STAT6 phosphorylation downstream of IL-13 stimulation in BEAS-2B human bronchial epithelial cells. In words: JAK1 pathway assay in BEAS-2B cells (IL-13 stimulated STAT6 phosphorylation, MSD). The class given is cell-based. The settings on record: read-out: P-STAT6 BEAS2B + IL13 IC50. The method, then: JAK1 Pathway Assay in Cell Lines was Carried Out as Follows:
Inhibitor potency (EC50) was determined in cell-based assays designed to measure JAK1 dependent STAT phosphorylation. As noted above, inhibition of IL-4, IL-13, and IL-9 signaling by blocking the Jak/Stat signaling pathway can alleviate asthmatic symptoms in pre-clinical lung inflammation models (Mathew et al., 2001, J Exp Med 193(9): 1087-1096; Kudlacz et. al., 2008, Eur J. Pharmacol 582(1-3): 154-161).
In one assay approach, TF-1 human erythroleukemia cells obtained from the American Type Culture Collection (ATCC; Manassas, Va.) were used to measure JAK1-dependent STAT6 phosphorylation downstream of IL-13 stimulation. Prior to use in the assays, TF-1 cells were starved of GM-CSF overnight in OptiMEM medium (Life Technologies, Grand Island, N.Y.) supplemented with 0.5% charcoal/dextran stripped fetal bovine serum (FBS), 0.1 mM non-essential amino acids (NEAA), and 1 mM sodium pyruvate. The assays were run in 384-well plates in serum-free OptiMEM medium using 300,000 cells per well. In a second assay approach, BEAS-2B human bronchial epithelial cells obtained from ATCC were plated at 100,000 cells per well of a 96-well plate one day prior to the experiment. The BEAS-2B assay was run in complete growth medium (bronchial epithelial basal medium plus bulletkit; Lonza; Basel, Switzerland).
Test compounds were serially diluted 1:2 in DMSO and then diluted 1:50 in medium just before use. Diluted compounds were added to the cells, for a final DMSO concentration of 0.2%, and incubated for 30 min (for the TF-1 assay) or 1 hr (for the BEAS-2B assay) at 37° C. Then, cells were stimulated with human recombinant cytokine at their respective EC90 concentrations, as previously determined for each individual lot. Cells were stimulated with IL-13 (R&D Systems, Minneapolis, Minn.) for 15 min at 37° C. The TF-1 cell reactions were stopped by the direct addition of 10× lysis buffer (Cell Signaling Technologies, Danvers, Mass.), whereas the BEAS-2B cell incubations were halted by the removal of medium and addition of 1× lysis buffer. The resultant samples were frozen in the plates at −80° C. Compound mediated inhibition of STAT6 phosphorylation was measured in the cell lysates using MesoScale Discovery (MSD) technology (Gaithersburg, Md.). EC50 values were determined as the concentration of compound required for 50% inhibition of STAT phosphorylation relative to that measured for the DMSO control.

T1 sequence (P23458 875-1153 limits assumed): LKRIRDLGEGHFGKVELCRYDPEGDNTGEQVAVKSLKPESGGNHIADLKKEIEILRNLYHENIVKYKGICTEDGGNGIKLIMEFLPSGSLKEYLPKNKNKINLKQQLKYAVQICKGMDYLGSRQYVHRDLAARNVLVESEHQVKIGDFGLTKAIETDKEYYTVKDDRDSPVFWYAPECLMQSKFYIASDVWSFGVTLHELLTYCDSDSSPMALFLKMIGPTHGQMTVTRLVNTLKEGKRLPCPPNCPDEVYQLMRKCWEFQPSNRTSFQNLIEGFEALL

Usually Ki stands for the dissociation constant of the complex between target and ligand, obtained from inhibition or displacement. One may read the IC50 as the concentration needed to halve the response being measured. For the molecule `CSc1ccc(OC(F)F)c(-c2nn(CC(=O)N3CCC(N(C)CCCC#N)CC3)cc2NC(=O)c2cnn3cccnc23)c1` [Example 17, N-[1-[2-[4-[3-cyanopropyl(methyl)amino]-1-piperidyl]-2-oxo-ethyl]-3-[2-(difluoromethoxy)-5-methylsulfanyl-phenyl]pyrazol-4-yl]pyrazolo[1,5-a]pyrimidine-3-carboxamide], the values for the Ki in assay [1] and in assay [2] were 0.27 nM and 0.53 nM, respectively. In addition, the IC50 in assay [3] stood at 5 nM.

For the molecule `CSc1ccc(OC(F)F)c(-c2nn(CC(=O)N3CCC(N4CCC(C#N)CC4)CC3)cc2NC(=O)c2cnn3cccnc23)c1` [Example 18, N-[1-[2-[4-(4-cyano-1-piperidyl)-1-piperidyl]-2-oxo-ethyl]-3-[2-(difluoromethoxy)-5-methylsulfanyl-phenyl]pyrazol-4-yl]pyrazolo[1,5-a]pyrimidine-3-carboxamide], the Ki is 0.24 nM in assay [1] and 0.37 nM in assay [2]. Moreover, the 50% inhibitory concentration (IC50) in assay [3] stood at 6 nM.

For `CSc1ccc(OC(F)F)c(-c2nn(CC(=O)N3CCC(NCC(C)(F)F)CC3)cc2NC(=O)c2cnn3cccnc23)c1` [Example 19, N-[3-[2-(difluoromethoxy)-5-methylsulfanyl-phenyl]-1-[2-[4-(2,2-difluoropropylamino)-1-piperidyl]-2-oxo-ethyl]pyrazol-4-yl]pyrazolo[1,5-a]pyrimidine-3-carboxamide], the Ki in assay [1] was determined as 0.24 nM; in assay [2], 0.39 nM. The IC50 in assay [3] was found to be 7.4 nM.

For `CSc1ccc(OC(F)F)c(-c2nn(CC(=O)N3CCC(NCC(C)(C)C#N)CC3)cc2NC(=O)c2cnn3cccnc23)c1` [Example 20, N-[1-[2-[4-[(2-cyano-2-methyl-propyl)amino]-1-piperidyl]-2-oxo-ethyl]-3-[2-(difluoromethoxy)-5-methylsulfanyl-phenyl]pyrazol-4-yl]pyrazolo[1,5-a]pyrimidine-3-carboxamide], the figures for the Ki in assay [1] and in assay [2] were 0.2 nM and 0.33 nM, respectively. Besides, in assay [3], the IC50 is 11 nM.

As to `CSc1ccc(OC(F)F)c(-c2nn(CC(=O)N3CCN(CCCC#N)CC3)cc2NC(=O)c2cnn3cccnc23)c1` [Example 21, N-[1-[2-[4-(3-cyanopropyl)piperazin-1-yl]-2-oxo-ethyl]-3-[2-(difluoromethoxy)-5-methylsulfanyl-phenyl]pyrazol-4-yl]pyrazolo[1,5-a]pyrimidine-3-carboxamide], the Ki in assay [1] came out at 0.27 nM; in assay [2] it was 0.33 nM. For the same molecule, in assay [3], the IC50 amounted to 9.1 nM.

Consider `CSc1ccc(OC(F)F)c(-c2nn(CC(=O)N3CCC(N(C)CC(=O)N4CCC4)CC3)cc2NC(=O)c2cnn3cccnc23)c1` [Example 22, N-[1-[2-[4-[[2-(azetidin-1-yl)-2-oxo-ethyl]-methyl-amino]-1-piperidyl]-2-oxo-ethyl]-3-[2-(difluoromethoxy)-5-methylsulfanyl-phenyl]pyrazol-4-yl]pyrazolo[1,5-a]pyrimidine-3-carboxamide], for which the inhibition constant (Ki) in assay [1] came out at 0.32 nM; in assay [2], 0.62 nM. Further, the IC50 in assay [3] turned out to be 130 nM.

`CSc1ccc(OC(F)F)c(-c2nn(CC(=O)N3CCC(N4CCN(C)C(=O)C4)CC3)cc2NC(=O)c2cnn3cccnc23)c1` [Example 23, N-[3-[2-(difluoromethoxy)-5-methylsulfanyl-phenyl]-1-[2-[4-(4-methyl-3-oxo-piperazin-1-yl)-1-piperidyl]-2-oxo-ethyl]pyrazol-4-yl]pyrazolo[1,5-a]pyrimidine-3-carboxamide]: the Ki in assay [1] came out at 0.24 nM; in assay [2] it was 0.31 nM. For the same molecule, the concentration for half-maximal inhibition (IC50) in assay [3] came to 61 nM.

For the molecule `CSc1ccc(OC(F)F)c(-c2nn(CC(=O)N3CCC(N(C)CC(C)(F)F)CC3)cc2NC(=O)c2cnn3cccnc23)c1` [Example 24, N-[3-[2-(difluoromethoxy)-5-methylsulfanyl-phenyl]-1-[2-[4-[2,2-difluoropropyl(methyl)amino]-1-piperidyl]-2-oxo-ethyl]pyrazol-4-yl]pyrazolo[1,5-a]pyrimidine-3-carboxamide], the inhibitory constant (Ki) in assay [1] came out at 0.22 nM; in assay [2], 0.32 nM. Also, in assay [3], the IC50 was determined as 4.9 nM.

`CSc1ccc(OC(F)F)c(-c2nn(CC(=O)N3CCC(CN4CCN(CC(=O)N(C)C)CC4)CC3)cc2NC(=O)c2cnn3cccnc23)c1` [Example 25, N-(3-(2-(difluoromethoxy)-5-(methylthio)phenyl)-1-(2-(4-((4-(2-(dimethylamino)-2-oxoethyl)piperazin-1-yl)methyl)piperidin-1-yl)-2-oxoethyl)-1H-pyrazol-4-yl)pyrazolo[1,5-a]pyrimidine-3-carboxamide]: the inhibition constant Ki in assay [1] was 0.31 nM; in assay [2], 0.51 nM. In addition, in assay [3], the IC50 was 18 nM.

Regarding `CSc1ccc(OC(F)F)c(-c2nn(CC(=O)N3CCC(N(C)CC(C)(C)C#N)CC3)cc2NC(=O)c2cnn3cccnc23)c1` [Example 26, N-[1-[2-[4-[(2-cyano-2-methyl-propyl)-methyl-amino]-1-piperidyl]-2-oxo-ethyl]-3-[2-(difluoromethoxy)-5-methylsulfanyl-phenyl]pyrazol-4-yl]pyrazolo[1,5-a]pyrimidine-3-carboxamide], the results for the Ki in assay [1] and in assay [2] were 0.24 nM and 0.39 nM, respectively. The IC50 in assay [3] came to 12 nM.

As for `CSc1ccc(OC(F)F)c(-c2nn(CC(=O)N3CCC(N4CCSCC4)CC3)cc2NC(=O)c2cnn3cccnc23)c1` [Example 27, N-[3-[2-(difluoromethoxy)-5-methylsulfanyl-phenyl]-1-[2-oxo-2-(4-thiomorpholino-1-piperidyl)ethyl]pyrazol-4-yl]pyrazolo[1,5-a]pyrimidine-3-carboxamide], the values for the Ki in assay [1] and in assay [2] were 0.23 nM and 0.32 nM, respectively. For the same molecule, the IC50 in assay [3] was 5.1 nM.

Regarding `CNCCn1cc(NC(=O)c2cnn3cccnc23)c(-c2cc(SC)ccc2OC(F)F)n1` [Example 28, N-[3-[2-(difluoromethoxy)-5-methylsulfanyl-phenyl]-1-[2-(methylamino)ethyl]pyrazol-4-yl]pyrazolo[1,5-a]pyrimidine-3-carboxamide], the results for the Ki in assay [1] and in assay [2] were 0.22 nM and 0.26 nM, respectively. For the same molecule, the IC50 in assay [3] turned out to be 3 nM.

Consider `CSc1ccc(OC(F)F)c(-c2nn(CC(=O)N3CCC(N(C)CC(C)C#N)CC3)cc2NC(=O)c2cnn3cccnc23)c1` (stereo not drawn) [Example 29, N-[1-[2-[4-[2-cyanopropyl(methyl)amino]-1-piperidyl]-2-oxo-ethyl]-3-[2-(difluoromethoxy)-5-methylsulfanyl-phenyl]pyrazol-4-yl]pyrazolo[1,5-a]pyrimidine-3-carboxamide], for which the Ki was 0.26 nM in assay [1] and 0.37 nM in assay [2]. Also, in assay [3], the half-inhibitory concentration (IC50) was found to be 9 nM.

Take `CSc1ccc(OC(F)F)c(-c2nn(CC(=O)N3CCC(NCC(C)C#N)CC3)cc2NC(=O)c2cnn3cccnc23)c1` (stereo not drawn) [Example 30, N-[1-[2-[4-(2-cyanopropylamino)-1-piperidyl]-2-oxo-ethyl]-3-[2-(difluoromethoxy)-5-methylsulfanyl-phenyl]pyrazol-4-yl]pyrazolo[1,5-a]pyrimidine-3-carboxamide]: the inhibition constant Ki turned out to be 0.29 nM in assay [1] and 0.38 nM in assay [2]. In assay [3], the half-maximal inhibitory concentration (IC50) turned out to be 8.7 nM.
